Assay results: US6794396B2, “Substituted pyridines useful for inhibiting cholesteryl ester transfer protein activity” (Pharmacia Corporation, priority 1998, dated 2004)
pIC50: −log10 of the molar value. Like-named read-outs stand apart in the source and are kept apart here.

What was measured:
CETP = molecular target: T1, CETP (Homo sapiens, UniProt P11597); experiment: CETP activity in vitro: transfer of [3H]CE from HDL donor to LDL acceptor particles; assay type: biochemical
T1 construct: made in house; host or cells: CHO cells (serum-free conditioned medium)
T1 sequence (P11597 18-493): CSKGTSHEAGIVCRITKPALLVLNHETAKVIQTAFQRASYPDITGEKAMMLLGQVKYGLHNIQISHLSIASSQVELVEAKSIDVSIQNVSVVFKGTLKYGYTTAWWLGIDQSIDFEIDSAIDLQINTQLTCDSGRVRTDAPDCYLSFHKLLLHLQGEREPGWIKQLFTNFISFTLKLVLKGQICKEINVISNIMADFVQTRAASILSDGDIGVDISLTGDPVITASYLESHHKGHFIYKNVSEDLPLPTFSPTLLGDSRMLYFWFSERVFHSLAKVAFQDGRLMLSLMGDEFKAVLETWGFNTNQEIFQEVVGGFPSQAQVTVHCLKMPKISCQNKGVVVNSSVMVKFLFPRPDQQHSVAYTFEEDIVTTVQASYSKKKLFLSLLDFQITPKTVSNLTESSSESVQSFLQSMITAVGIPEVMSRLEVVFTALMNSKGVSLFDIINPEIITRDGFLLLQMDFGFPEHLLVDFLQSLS
Outline: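 Transfer of radiolabelled cholesteryl ester from HDL to LDL was followed over 2 h at 37 °C in Tris buffer (pH 7.4, 150 mM NaCl, 2 mM EDTA, 1% BSA), using CETP secreted by transfected CHO cells. Radioactivity in dextran sulfate/Mg-precipitated LDL was measured by scintillation counting, giving IC50.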

[1] = 50% inhibition of [3H]CE transfer from HDL to LDL, 2 hours at 37° C., read-out: IC50(μm)
[2] = IC50(μm), 50% inhibition of [3H]CE transfer from HDL to LDL, 2 hours at 37° C.

Row | pIC50 (CETP; Table 8, read-out: IC50) | SMILES | further results
1 | – | COC(=O)c1c(OC(=O)N(c2ccccc2)c2ccccc2)cc(C(F)(F)F)nc1C(F)(F)F [Compound 25, Methyl 2,6-Bis(trifluoromethyl)-4-(diphenylaminocarbonyloxy)-3-pyridinecarboxylate] | melting point: 114 to 116 °C; pIC50 (CETP; [1]): 4.40
2 | – | COC(=O)c1c(C(F)F)nc(C(F)(F)F)c(C(=O)Sc2cc(C(C)(C)C)cc(C(C)(C)C)c2)c1CC(C)C [Compound 151, Methyl 2-(Difluoromethyl)-5-{[(3,5-di-t-butylphenyl)thio]carbonyl}-4-(2-methylpropyl)-6-(trifluoromethyl)-3-pyridinecarboxylate] | melting point: 102.5 to 108.5 °C; pIC50 (CETP; [2]): 4.22
3 | – | COC(=O)c1c(C(F)F)nc(C(F)(F)F)c(C(=O)Sc2ccc(C)cc2C)c1CC(C)C [Compound 152, Methyl 2-(Difluoromethyl)-5-{[(2,4-dimethylphenyl)thio]carbonyl}-4-(2-methylpropyl)-6-(trifluoromethyl)-3-pyridinecarboxylate] | melting point: 98.5 to 102.5 °C; pIC50 (CETP; [2]): 4.22
4 | – | COC(=O)c1c(C(F)F)nc(C(F)(F)F)c(C(=O)Sc2ccccc2OC)c1CC(C)C [Compound 153, Methyl 2-(Difluoromethyl)-4-(2-methylpropyl)-5-{[(2-methoxyphenyl)thio]carbonyl}-6-(trifluoromethyl)-3-pyridinecarboxylate] | melting point: 100 to 102 °C; pIC50 (CETP; [2]): 4.00
5 | – | COC(=O)c1c(C(F)F)nc(C(F)(F)F)c(C(=O)Sc2cccc(OC)c2)c1CC(C)C [Compound 154, Methyl 2-(Difluoromethyl)-4-(2-methylpropyl)-5-{[(3-methoxyphenyl)thio]carbonyl}-6-(trifluoromethyl)-3-pyridinecarboxylate] | melting point: 87 to 88.5 °C; pIC50 (CETP; [2]): 4.00
6 | – | COC(=O)c1c(C(F)F)nc(C(F)(F)F)c(C(=O)Sc2ccc(C(C)(C)C)cc2C(C)(C)C)c1CC(C)C [Compound 155, Methyl 2-(Difluoromethyl)-5-{[(2,4-di-t-butylphenyl)thio]carbonyl}-4-(2-methylpropyl)-6-(trifluoromethyl)-3-pyridinecarboxylate] | melting point: 115.5 to 120.5 °C; pIC50 (CETP; [1]): 4.30
7 | – | COC(=O)c1c(C(F)F)nc(C(F)(F)F)c(C(=O)Sc2ccc(C(C)(C)C)cc2)c1CC(C)C [Compound 156, Methyl 5-{[(4-t-Butylphenyl)thio]carbonyl}-2-(difluoromethyl)-4-(2-methylpropyl)-6-(trifluoromethyl)-3-pyridinecarboxylate] | melting point: 60.5 to 62.5 °C; pIC50 (CETP; [1]): 4.00
8 | – | COC(=O)c1c(C(F)F)nc(C(F)(F)F)c(C(=O)Sc2ccc(C)cc2C)c1CC(C)C [Compound 158, Methyl 2-(Difluoromethyl)-5-{[(2,4-dimethyl-phenyl)thio]carbonyl}-4-(2-methylpropyl)-6-(trifluoromethyl)-3-pyridinecarboxylate] | melting point: 96 to 99 °C; pIC50 (CETP; [2]): 4.00
9 | – | COC(=O)c1c(C(F)F)nc(C(F)(F)F)c(C(=O)Sc2ccc(SC)cc2)c1CC(C)C [Compound 159, Methyl 2-(Difluoromethyl)-4-(2-methylpropyl)-5-{[(4-methylthiophenyl)thio]carbonyl}-6-(trifluoromethyl)-3-pyridinecarboxylate] | melting point: 112 to 114 °C; pIC50 (CETP; [2]): 4.10
10 | – | COC(=O)c1c(C(F)F)nc(C(F)(F)F)c(C(=O)Oc2c(C)cc([N+](=O)[O-])cc2C)c1CC(C)C [Compound 176, 3-Methyl 5-(2,6-Dimethyl-4-nitrophenyl) 2-(Difluoromethyl)-4-(2-methylpropyl)-6-(trifluoromethyl)-3,5-pyridicarboxylate] | melting point: 96 to 97 °C
11 | – | COC(=O)c1c(C(F)F)nc(C(F)(F)F)c(SCc2cc(Cl)cc3c2OCOC3)c1CC(C)C [Compound 246, Methyl 5[(6-chloro-1,3-benzodioxan-8-yl)methylthio]-2-(difluoromethyl)-4-(2-methylpropyl)-6-(trifluoromethyl)-3-pyridinecarboxylate] | pIC50 (CETP; Table 7, compounds of formula T-7, read-out: IC50): 4.52
12 | 4.11 | Fc1ccc(-c2c(COCc3ccccc3)c(C(F)(F)F)nc(C(F)F)c2C(F)c2ccc(C(F)(F)F)cc2)cc1 (stereo not drawn) [Compound 248] | –
13 | 5.30 | OCc1c(C(F)(F)F)nc(C(F)F)c(C(F)c2ccc(C(F)(F)F)cc2)c1-c1ccc(F)cc1 (stereo not drawn) [Compound 249] | –
14 | 4.40 | CCOC(=O)c1c(C(F)(F)F)nc(C(F)F)c(C(F)c2ccc(Cl)cc2)c1-c1ccc(F)cc1 (stereo not drawn) [Compound 250] | –
15 | 5.15 | O=Cc1c(C(F)F)nc(C(F)(F)F)c(C(F)c2ccc(C(F)(F)F)cc2)c1-c1ccc(F)cc1 (stereo not drawn) [Compound 251] | –
16 | 5.35 | O=Cc1c(C(F)F)nc(C(F)(F)F)c(COCc2ccccc2)c1-c1ccc(F)cc1 [Compound 252] | –
17 | 4.72 | OCc1c(C(F)(F)F)nc(C(F)F)c(C(F)c2ccc(C(F)(F)F)cc2)c1-c1ccc(F)cc1 (stereo not drawn) [Compound 253] | –
18 | 4.26 | CCOC(=O)c1c(C(F)(F)F)nc(C(F)F)c(C(F)c2ccc(Cl)cc2)c1-c1ccc(F)cc1 (stereo not drawn) [Compound 254] | –
19 | 4.82 | O=C(c1ccc(Cl)cc1)c1c(C(F)(F)F)nc(C(F)F)c(CO)c1-c1ccccc1 [Compound 258] | –
20 | 4.22 | O=C(c1ccc2ccccc2c1)c1c(C(F)(F)F)nc(C(F)F)c(CO)c1-c1ccccc1 [Compound 259] | –
21 | 4.40 | CC(C)c1ccc(C(=O)c2c(C(F)(F)F)nc(C(F)F)c(CO)c2-c2ccccc2)cc1 [Compound 263] | –
22 | 4.52 | O=C(c1ccc(Cl)cc1)c1c(C(F)(F)F)nc(C(F)F)c(CO)c1-c1ccccc1 [Compound 264] | –
23 | 4.22 | CC(C)c1ccc(C(F)c2c(C(F)(F)F)nc(C(F)F)c(CO)c2-c2ccccc2)cc1 (stereo not drawn) [Compound 265] | –
24 | < 4.00 | CC(C)c1ccc(C(O)c2c(C(F)(F)F)nc(C(F)F)c(CO)c2-c2ccccc2)cc1 (stereo not drawn) [Compound 266] | –

Row | pIC50 (CETP; Table 8, read-out: IC50) | SMILES | further results
25 | 4.15 | CCOC(=O)c1c(C(F)(F)F)nc(C(F)F)c(C(F)c2ccc(Cl)cc2)c1-c1ccccc1 (stereo not drawn) [Compound 267] | –
26 | 4.15 | CCOC(=O)c1c(C(F)(F)F)nc(C(F)F)c(C(F)c2ccc3ccccc3c2)c1-c1ccccc1 (stereo not drawn) [Compound 268] | –
27 | < 4.00 | OCc1c(C(F)F)nc(C(F)(F)F)c(C(O)c2ccc(Cl)cc2)c1-c1ccccc1 (stereo not drawn) [Compound 269] | –
28 | < 4.00 | OCc1c(C(F)F)nc(C(F)(F)F)c(C(O)c2ccc3ccccc3c2)c1-c1ccccc1 (stereo not drawn) [Compound 270] | –
29 | 4.15 | CCOC(=O)c1c(C(F)(F)F)nc(C(F)F)c(C(F)c2ccc(C(C)C)cc2)c1-c1ccccc1 (stereo not drawn) [Compound 271] | –
30 | 4.05 | CCOC(=O)c1c(C(F)(F)F)nc(C(F)F)c(C(O)c2ccc(Cl)cc2)c1-c1ccccc1 (stereo not drawn) [Compound 272] | –
31 | 5.10 | CC(C)c1ccc(Cc2c(C(F)F)nc(C(F)(F)F)c(C=O)c2-c2ccccc2)cc1 [Compound 274] | –
32 | < 4.00 | CC(C)c1ccc(C(O)c2c(C(F)F)nc(C(F)(F)F)c(CO)c2-c2ccccc2)cc1 (stereo not drawn) [Compound 275] | –
33 | < 4.00 | OC(c1ccc(C(F)(F)F)cc1)c1c(C(F)F)nc(C(F)(F)F)c(COCc2ccccc2)c1-c1ccc(F)cc1 (stereo not drawn) [Compound 276] | –
34 | 4.10 | CCOC(=O)c1c(C(F)(F)F)nc(C(F)F)c(C(O)c2ccc3ccccc3c2)c1-c1ccccc1 (stereo not drawn) [Compound 278] | –
35 | 4.82 | O=Cc1c(C(F)(F)F)nc(C(F)F)c(Cc2ccc3ccccc3c2)c1-c1ccccc1 [Compound 279] | –
36 | < 4.00 | OCc1c(C(F)(F)F)nc(C(F)F)c(C(O)c2ccc3ccccc3c2)c1-c1ccccc1 (stereo not drawn) [Compound 280] | –
37 | < 4.00 | OCc1c(C(F)F)nc(C(F)(F)F)c(COCc2ccccc2)c1-c1ccc(F)cc1 [Compound 281] | –
38 | 4.41 | CC(C)CC(O)c1c(C(F)F)nc(C(F)(F)F)c(C(F)c2ccc(C(F)(F)F)cc2)c1-c1ccc(F)cc1 (stereo not drawn) [Compound 283] | –
39 | 4.64 | C=CC(O)c1c(C(F)F)nc(C(F)(F)F)c(C(=O)c2ccc(C(F)(F)F)cc2)c1-c1ccc(F)cc1 (stereo not drawn) [Compound 284] | –
40 | 4.93 | O=Cc1c(C(F)F)nc(C(F)(F)F)c(C(=O)c2ccc3ccccc3c2)c1-c1ccccc1 [Compound 286] | –
41 | 4.72 | CC(C)CC(O)c1c(C(F)F)nc(C(F)(F)F)c(C(=O)c2ccc(C(F)(F)F)cc2)c1-c1ccc(F)cc1 (stereo not drawn) [Compound 288] | –
42 | 4.26 | C=CC(OC(=O)c1ccccc1)c1c(C(F)F)nc(C(F)(F)F)c(C(=O)c2ccc(OCC)cc2)c1-c1ccccc1 (stereo not drawn) [Compound 289] | –
43 | 4.79 | O=C(c1ccc(C(F)(F)F)cc1)c1c(C(F)(F)F)nc(C(F)F)c(CO)c1-c1ccc(F)cc1 [Compound 292] | –
44 | 4.99 | O=Cc1c(C(F)F)nc(C(F)(F)F)c(C(=O)c2ccc(Cl)cc2)c1-c1ccccc1 [Compound 293] | –
45 | 4.40 | CCOC(=O)c1c(C(F)(F)F)nc(C(F)F)c(CN2CCCC2)c1-c1ccc(F)cc1 [Compound 294] | –
46 | – | C=CC(O)c1c(C(F)F)nc(C(F)(F)F)c(C(=O)OC)c1CC(C)C (stereo not drawn) [Compound 295] | pIC50 (CETP; IC50, Table 8): < 4.00
47 | < 4.00 | CCOC(=O)c1c(C(F)(F)F)nc(C(F)F)c(C(O)c2ccc(C(F)(F)F)cc2)c1-c1ccccc1 (stereo not drawn) [Compound 296] | –
48 | < 4.00 | OCc1c(C(F)(F)F)nc(C(F)F)c(CN2CCCC2)c1-c1ccccc1 [Compound 297] | –
